According to article PMC10108200, “Reaction Pathways for the Enzymatic Degradation of Poly(Ethylene Terephthalate): What Characterizes an Efficient PET‐Hydrolase?” (Chembiochem, 2022):

Biological target: T1, IsP (Pseudideonella sakaiensis, UniProt A0A0K8P6T7)
T1 construct: gene ISF6_4831; heterologously expressed and purified
Experiment: initial rates by RP-HPLC, Michaelis-Menten fit
Format: biochemical
Settings: 50 °C, 10 min, 0-2 mM substrate, 0.01-0.5 μM enzyme
Text: initial rates by RP-HPLC, Michaelis-Menten fit on IsP

T1 sequence (A0A0K8P6T7 28-290): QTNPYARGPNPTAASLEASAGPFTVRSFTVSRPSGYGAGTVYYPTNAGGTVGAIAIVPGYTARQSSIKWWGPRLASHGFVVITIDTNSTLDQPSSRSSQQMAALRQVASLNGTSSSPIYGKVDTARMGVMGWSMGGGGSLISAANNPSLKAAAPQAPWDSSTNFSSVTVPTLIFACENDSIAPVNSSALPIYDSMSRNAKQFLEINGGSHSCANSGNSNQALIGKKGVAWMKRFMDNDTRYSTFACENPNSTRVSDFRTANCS

Km [µM]	SMILES
58 ± 29	O=C(O)c1ccc(C(=O)OCCOC(=O)c2ccc(C(=O)OCCOC(=O)c3ccc(C(=O)O)cc3)cc2)cc1 [TETET]
140 ± 36	O=C(O)c1ccc(C(=O)OCCOC(=O)c2ccc(C(=O)OCCO)cc2)cc1 [TETE]
